Assay results from ChEMBL document CHEMBL3217580, “Structureactivity relationships of benzimidazole derivatives as antiparasitic agents: Dual activity-difference (DAD) maps” (Medchemcomm, 2011).

Key:
Giardia intestinalis = assay: Antimicrobial activity against Giardia intestinalis; format: functional, organism-based, Giardia duodenalis; settings: for IC50: Giardia duodenalis
Trichomonas vaginalis = assay: Antimicrobial activity against Trichomonas vaginalis; format: functional, organism-based
[1] = Trichomonas vaginalis, read-out: IC50
[2] = Trichomonas vaginalis, read-out: pIC50 (converted)

Compound | pIC50 (Giardia intestinalis) | IC50 (Giardia intestinalis; read-out: IC50) [nM] | IC50 (Giardia intestinalis; read-out: pIC50 (converted)) [nM] | pIC50 (Trichomonas vaginalis) | IC50 (Trichomonas vaginalis; [1]) [nM] | IC50 (Trichomonas vaginalis; [2]) [nM] | IC50 (Trichomonas vaginalis; read-out: IC50) [nM]
CN(C)CCCSc1nc2c(Cl)cc(Cl)cc2[nH]1 | 7.14 | 72 | 72.4 | 7.07 | 85 | 85.1 | 
CCCSc1ccc2[nH]c(C(F)(F)F)nc2c1 | 5.82 |  | 1510 | 6.46 |  | 347 | 
OCCSc1nc2c(Br)cc(Br)cc2[nH]1 | 6.98 |  | 105 | 6.83 |  | 148 | 
CN(C)CCCSc1nc2c(Br)cc(Br)cc2[nH]1 | 7.69 | 20 | 20.4 | 7.99 | 11 | 10.2 | 
Brc1cc(Br)c2nc(SCCN3CCCCC3)[nH]c2c1 | 6.9 |  | 126 | 7.69 |  | 20.4 | 
FC(F)(F)c1nc2c(Br)c(Br)c(Br)cc2[nH]1 | 6.85 |  | 141 | 6.57 | 270 | 269 | 270
CN(C)CCSc1nc2c(Cl)cc(Cl)cc2[nH]1 | 7.68 |  | 20.9 |  |  |  | 
Clc1cc(Cl)c2nc(SCCN3CCCCC3)[nH]c2c1 | 7.26 |  | 55 | 7.14 |  | 72.4 | 
Clc1cc(Cl)c2nc(SCCN3CCOCC3)[nH]c2c1 | 7.41 |  | 38.9 | 7.29 |  | 51.3 | 
OCCSc1nc2c(Cl)cc(Cl)cc2[nH]1 | 7.42 |  | 38 | 6.16 |  | 692 | 
Brc1cc(Br)c2nc(SCCN3CCOCC3)[nH]c2c1 | 7.23 |  | 58.9 | 7.23 |  | 58.9 | 
O=[N+]([O-])c1ccc(CCSc2nc3c(Cl)cc(Cl)cc3[nH]2)cc1 | 7.09 |  | 81.3 | 7.96 | 10 | 11 | 
O=[N+]([O-])c1ccc(CCSc2nc3c(Br)cc(Br)cc3[nH]2)cc1 | 7.43 |  | 37.2 | 8.48 | 3 | 3.31 | 
CCN(CC)CCSc1nc2c(Br)cc(Br)cc2[nH]1 | 7.46 |  | 34.7 | 7.53 | 29 | 29.5 | 
CN(C)CCSc1nc2c(Br)cc(Br)cc2[nH]1 | 7.54 |  | 28.8 | 6.51 |  | 309 | 
CCN(CC)CCSc1nc2c(Cl)cc(Cl)cc2[nH]1 | 7.72 |  | 19.1 | 7.39 |  | 40.7 | 
FC(F)(F)c1nc2cc(Br)ccc2[nH]1 | 6.19 |  | 646 | 5.8 |  | 1580 | 
O=C(c1ccccc1)c1ccc2[nH]c(C(F)(F)F)nc2c1 | 5.64 | 2310 | 2290 | 4.55 | 28400 | 28200 | 
FC(F)(F)c1nc2c(Br)cc(Br)cc2[nH]1 | 6.6 |  | 251 | 6.72 |  | 191 | 
